Ends that are not written are not given here.
How the values were obtained:
BttxB = BttxB (Clostridium botulinum, UniProt P10844); type: biochemical
Bttxs = details: cited from earlier work
[1] = rat, in vivo, ip

Chain of BttxB (P10844 2-441 limits assumed): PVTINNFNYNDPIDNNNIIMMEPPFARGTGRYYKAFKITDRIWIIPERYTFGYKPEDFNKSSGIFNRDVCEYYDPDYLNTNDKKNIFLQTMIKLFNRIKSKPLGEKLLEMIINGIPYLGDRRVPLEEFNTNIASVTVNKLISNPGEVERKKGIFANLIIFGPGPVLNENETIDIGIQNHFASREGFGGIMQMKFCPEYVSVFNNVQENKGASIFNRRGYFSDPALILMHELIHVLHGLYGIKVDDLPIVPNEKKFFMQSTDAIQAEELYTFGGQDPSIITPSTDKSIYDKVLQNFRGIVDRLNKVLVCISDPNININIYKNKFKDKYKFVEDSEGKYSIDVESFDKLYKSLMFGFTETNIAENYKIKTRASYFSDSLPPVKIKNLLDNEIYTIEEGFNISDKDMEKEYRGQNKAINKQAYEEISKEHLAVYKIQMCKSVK

TRSRAKGLQFPGLLVHRKGNY [OSP]
inhibition of BttxB endoprotease activity (in words) (BttxB): inhibition

CC(C)C[C@H](NP(=O)(O)O[C@@H]1O[C@@H](C)[C@H](O)[C@@H](O)[C@H]1O)C(=O)N[C@@H](Cc1c[nH]c2ccccc12)C(=O)O [phosphoramidon]
inhibition of Bttxs (in words) (Bttxs): not effective inhibitors

C[C@H](CS)C(=O)N1CCC[C@H]1C(=O)O [captopril]
inhibition of Bttxs (in words) (Bttxs): not effective inhibitors

AlaGlyArgGlyLysGlnGlyGlyLysValArgAlaLysAlaLysThrArgSerSerArgAlaGlyLeuGlnPheProValGlyArgValHisArgLeuLeuArglys [Peptide 36]
effectiveness as inhibitor of BttxB activity relative to B-I (BttxB): about 50% | substrate of BttxB (BttxB): not substrates

ThrArgSerSerArgAlaGlyLeuGlnPheProValGlyArgValHisArgLerLeuArgLysGlyAsnTyr [Peptide 24]
effectiveness as inhibitor of BttxB activity relative to B-I (BttxB): about 25% | substrate of BttxB (BttxB): not substrates

CC(C)C[C@H](NC(=O)CNC(=O)[C@H](C)NC(=O)[C@H](CCCNC(=N)N)NC(=O)[C@H](CO)NC(=O)[C@H](CO)NC(=O)[C@H](CCCNC(=N)N)NC(=O)[C@@H](NC(=O)[C@H](CCCCN)NC(=O)[C@H](C)NC(=O)[C@H](CCCCN)NC(=O)[C@H](C)NC(=O)[C@H](CCCNC(=N)N)NC(=O)[C@@H](NC(=O)[C@H](CCCCN)NC(=O)CNC(=O)CNC(=O)[C@H](CCC(N)=O)NC(=O)[C@H](CCCCN)NC(=O)CNC(=O)[C@H](CCCNC(=N)N)NC(=O)CNC(=O)[C@H](C)N)C(C)C)[C@@H](C)O)C(=O)N[C@@H](CCC(N)=O)C(=O)N[C@@H](Cc1ccccc1)C(=O)N1CCC[C@H]1C(=O)N[C@H](C(=O)NCC(=O)N[C@@H](CCCNC(=N)N)C(=O)N[C@H](C(=O)N[C@@H](Cc1c[nH]cn1)C(=O)N[C@@H](CCCNC(=N)N)C(=O)N[C@@H](CC(C)C)C(=O)N[C@@H](CC(C)C)C(=O)N[C@@H](CCCNC(=N)N)C(=O)N[C@@H](CCCCN)C(=O)NCC(=O)N[C@@H](CC(N)=O)C(=O)N[C@@H](Cc1ccc(O)cc1)C(=O)O)C(C)C)C(C)C [Buforin I]
Plateau (time to reach maximal-plateau level) [1]: ≤ 40 min | time the maximal-plateau level was maintained [1]: up to 4 h | time to reach ½ the absorbed maximal value [1]: 7.7 min | inhibition of BttxB endoprotease activity (in words) (BttxB): dose-dependency and competitively inhibits | substrate of BttxB (BttxB): not to be a substrate

Substance P [reference compound]
substrate of BttxB (BttxB): not a substrate

From patent US6713444B1 (priority 1999, dated 2004)
